According to ChEMBL document CHEMBL1137427, “Efforts toward oral bioavailability in factor VIIa inhibitors” (Bioorg Med Chem Lett, 2006):

Assays:
[1] = target: Coagulation factor VII/tissue factor (Homo sapiens) (UniProt P08709+P13726); details: Plasma
Description: Anticoagulant potency in human plasma as measured by prothrombin time

Coagulation factor VII = target: T1, Coagulation factor VII (Homo sapiens, UniProt P08709)
T1 sequence (P08709 whole entry): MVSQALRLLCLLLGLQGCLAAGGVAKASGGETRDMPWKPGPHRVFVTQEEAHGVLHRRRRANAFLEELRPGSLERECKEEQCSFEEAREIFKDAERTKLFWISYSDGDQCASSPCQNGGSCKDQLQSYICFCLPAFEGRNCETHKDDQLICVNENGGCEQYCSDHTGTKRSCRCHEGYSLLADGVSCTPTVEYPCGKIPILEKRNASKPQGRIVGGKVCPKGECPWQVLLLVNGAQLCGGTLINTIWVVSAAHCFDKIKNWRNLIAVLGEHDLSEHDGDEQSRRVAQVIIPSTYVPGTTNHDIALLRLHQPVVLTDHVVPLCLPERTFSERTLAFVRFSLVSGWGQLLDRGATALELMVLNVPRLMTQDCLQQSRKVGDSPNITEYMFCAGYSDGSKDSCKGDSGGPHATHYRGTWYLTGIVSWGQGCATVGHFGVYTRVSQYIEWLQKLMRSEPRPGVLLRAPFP

[2] = Mean residence time in iv dosed rat; format: ADME, organism-based; details: in vivo
[3] = AUC in portal vein catheter of Sprague-Dawley rat at 10 mg/kg, po; format: ADME, organism-based; set-up: dose 10 mg/kg, route oral; details: plasma
[4] = Tmax in portal vein catheter of Sprague-Dawley rat at 10 mg/kg, po; format: ADME, organism-based; set-up: dose 10 mg/kg, route oral; details: in vivo
[5] = AUC in jugular vein catheter of Sprague-Dawley rat at 10 mg/kg, po; format: ADME, organism-based; set-up: dose 10 mg/kg, route oral; details: plasma
[6] = Oral bioavailability in Sprague-Dawley rat at 10 mg/kg, po (AUC po, jv/AUC iv, jv); format: ADME, organism-based; details: in vivo
[7] = Tmax in jugular vein catheter of Sprague-Dawley rat at 10 mg/kg, po; format: ADME, organism-based; set-up: dose 10 mg/kg, route oral; details: in vivo
[8] = Terminal half life in portal vein catheter of Sprague-Dawley rat at 10 mg/kg, po; format: ADME, organism-based; set-up: dose 10 mg/kg, route oral; details: in vivo
[9] = Cmax in portal vein catheter of Sprague-Dawley rat at 10 mg/kg, po; format: ADME, organism-based; set-up: dose 10 mg/kg, route oral; details: in vivo
[10] = Terminal half life in jugular vein catheter of Sprague-Dawley rat at 10 mg/kg, po; format: ADME, organism-based; set-up: dose 10 mg/kg, route oral; details: in vivo
[11] = Oral absorption in Sprague-Dawley rat at 10 mg/kg, po (AUC po, pv/AUC iv, jv); format: ADME, organism-based; set-up: dose 10 mg/kg, route oral; details: in vivo
[12] = Cmax in jugular vein catheter of Sprague-Dawley rat at 10 mg/kg, po; format: ADME, organism-based; set-up: dose 10 mg/kg, route oral; details: in vivo
[13] = Mean residence time in iv dosed Sprague-Dawley rat; format: ADME, organism-based; details: in vivo

Row | Compound | 2PT [1] | Ki (Coagulation factor VII) | MRT [2] | other results
1 | N=C(N)c1ccc2[nH]c(-c3cccc(-c4cc(CNC(N)=O)ccc4O)c3O)nc2c1 | 2.3 µM | 0.014 µM | 20 min | 
2 | CCCCCC(=O)NCc1ccc(O)c(-c2cccc(-c3cc4cc(C(=N)NO)ccc4[nH]3)c2O)c1 |  |  |  | AUC [3]: 2030 nM·h; Tmax [4]: 31 min; AUC [5]: 2400 nM·h; bioavailability [6]: 11%; Tmax [7]: 30 min; half-life [8]: 49 min; Cmax [9]: 1.31 µM; half-life [10]: 54 min; Fa [11]: 9%; Cmax [12]: 1.73 µM
3 | CC(=O)NCc1ccc(O)c(-c2cccc(-c3cc4cc(C(=N)N)ccc4[nH]3)c2O)c1 |  | 0.12 µM |  | 
4 | CN(C)CCCC(=O)NCc1ccc(O)c(-c2cccc(-c3cc4cc(C(=N)N)ccc4[nH]3)c2O)c1 | 0.9 µM | 0.016 µM |  | MRT [13]: 50 min
5 | N=C(N)c1ccc2[nH]c(-c3cc(CC(=O)O)cc(-c4cc(CNC(N)=O)ccc4O)c3O)nc2c1 |  | 0.014 µM | < 20 min | 
6 | N=C(N)c1ccc2[nH]c(-c3cccc(-c4cc(CNC(=O)N5CCOCC5)ccc4O)c3O)cc2c1 | 2 µM | 0.017 µM |  | 

The remaining compounds from weak to strong by Ki (Coagulation factor VII), led by results:

Row | 2PT [1] | Ki (Coagulation factor VII) | MRT [2] | Compound | other results
7 | 1.4 µM | 0.013 µM |  | CCCCCC(=O)NCc1ccc(O)c(-c2cccc(-c3cc4cc(C(=N)N)ccc4[nH]3)c2O)c1 | AUC [3]: 14.7 nM·h; Tmax [4]: 40 min; AUC [5]: 12.2 nM·h; Tmax [7]: 30 min; half-life [8]: 26 min; Cmax [9]: 0.014 µM; half-life [10]: 37 min; MRT [13]: 89 min; Cmax [12]: 0.012 µM
8 | 2.5 µM | 0.005 µM | < 20 min | N=C(N)c1ccc2[nH]c(-c3cc(F)cc(-c4cc(CNC(N)=O)ccc4O)c3O)nc2c1 | 
9 | 2 µM | 0.004 µM | < 20 min | Cc1cc(-c2nc3cc(C(=N)N)ccc3[nH]2)c(O)c(-c2cc(CNC(N)=O)ccc2O)c1 | 
10 | 0.9 µM | 0.003 µM |  | N=C(N)c1ccc2[nH]c(-c3cccc(-c4cc(CNC(=O)CO)ccc4O)c3O)cc2c1 | MRT [13]: 117 min
11 | 1.9 µM | 0.001 µM | > 60 min | N=C(N)c1ccc2[nH]c(-c3cc(C(CC(=O)O)C(=O)O)cc(-c4cc(CNC(N)=O)ccc4O)c3O)nc2c1 (centres undefined) | 
